From patent US7514419B2, “Phosphorus-containing thyromimetics” (Metabasis Therapeutics, Inc., priority 2003, dated 2009)

Experiments:
[1] = test system: normal rats maintained on a cholesterol-containing diet; assay: Continuous infusion study in rats on a cholesterol-containing diet; settings: continuous infusion 1 mg/kg/day; for cardiovascular parameters (heart rate, LV dP/dt, blood pressure): day 7 or day 14
Protocol: Screening for thyromimetic activity was performed in normal rats maintained on a cholesterol-containing diet.

[2] = biological target: T1, human thyroid hormone receptors TRα1 (Homo sapiens, UniProt P10827); assay: Receptor binding: labeled T3 binding/displacement, gel filtration and scintillation proximity assay (SPA); settings: read-out: Ki TRα
T1 sequence (P10827 1-410 isoform P10827-2): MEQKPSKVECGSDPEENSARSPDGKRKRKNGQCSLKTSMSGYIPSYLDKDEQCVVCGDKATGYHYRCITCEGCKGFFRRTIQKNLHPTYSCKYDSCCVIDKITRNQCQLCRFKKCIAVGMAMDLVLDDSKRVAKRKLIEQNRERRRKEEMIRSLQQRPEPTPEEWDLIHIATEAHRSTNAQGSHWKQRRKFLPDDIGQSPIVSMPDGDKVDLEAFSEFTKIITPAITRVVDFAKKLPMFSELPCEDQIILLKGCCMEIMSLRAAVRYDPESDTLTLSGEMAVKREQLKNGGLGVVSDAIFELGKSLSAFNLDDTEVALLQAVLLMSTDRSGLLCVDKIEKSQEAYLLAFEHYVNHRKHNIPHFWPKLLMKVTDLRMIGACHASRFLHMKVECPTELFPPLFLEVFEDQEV
T1 sequence (P19793 1-462 partner): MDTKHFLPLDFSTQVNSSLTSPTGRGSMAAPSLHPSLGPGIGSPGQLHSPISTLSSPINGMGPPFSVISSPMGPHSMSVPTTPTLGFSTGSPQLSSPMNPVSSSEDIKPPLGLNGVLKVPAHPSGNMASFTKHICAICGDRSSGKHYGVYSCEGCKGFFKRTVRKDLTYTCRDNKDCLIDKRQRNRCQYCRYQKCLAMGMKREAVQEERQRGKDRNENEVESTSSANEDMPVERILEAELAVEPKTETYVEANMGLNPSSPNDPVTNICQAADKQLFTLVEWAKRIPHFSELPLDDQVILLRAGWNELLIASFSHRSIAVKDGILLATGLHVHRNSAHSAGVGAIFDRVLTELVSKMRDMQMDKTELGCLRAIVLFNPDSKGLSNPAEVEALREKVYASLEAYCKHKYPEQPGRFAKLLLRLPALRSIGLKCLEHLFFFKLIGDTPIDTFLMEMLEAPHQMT

[3] = biological target: T2, human thyroid hormone receptors TRβ1 (Homo sapiens, UniProt P10828); assay: as above; settings: read-out: Ki TRβ
T2 sequence (P10828 1-461): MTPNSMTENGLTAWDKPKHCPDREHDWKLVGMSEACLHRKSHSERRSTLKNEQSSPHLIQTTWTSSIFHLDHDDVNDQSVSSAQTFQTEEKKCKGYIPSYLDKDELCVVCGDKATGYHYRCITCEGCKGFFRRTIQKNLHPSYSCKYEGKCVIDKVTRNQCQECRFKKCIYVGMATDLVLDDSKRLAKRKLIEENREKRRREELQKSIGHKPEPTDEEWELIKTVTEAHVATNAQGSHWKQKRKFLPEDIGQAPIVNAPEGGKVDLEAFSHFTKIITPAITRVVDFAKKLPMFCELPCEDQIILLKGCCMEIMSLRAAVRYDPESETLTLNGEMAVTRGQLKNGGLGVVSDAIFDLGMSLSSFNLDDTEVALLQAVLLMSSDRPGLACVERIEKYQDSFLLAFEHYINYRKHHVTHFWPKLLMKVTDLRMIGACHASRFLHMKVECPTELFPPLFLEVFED
T2 sequence (P19793 1-462 partner): T1 sequence (P19793 1-462 partner)

[4] = test system: Hypercholesterolemic rats; assay: Cholesterol lowering in hypercholesterolemic rats; format: in vivo, rat; settings: for change in vivo at 0.2 mg/kg/day / change in vivo at 0.5 mg/kg/day: Rattus norvegicus, percentage change from pre-dose cholesterol; for cholesterol lowering: 0.5 mg/kg/d orally; for change in vivo at 0.5 mg/kg/day: delivered p.o. (0.5 mg/kg/d)
cholesterol-fed rat = assay: Subacute study in cholesterol-fed rats, IP once-a-day for seven days: serum cholesterol, heart weight, heart mGPDH; settings: cholesterol-fed rats, IP 7 days; Compound 17 at 0.1-1 mg/kg/day
Protocol: The cholesterol-fed rat is an animal model of hypercholesterolemia generated by feeding the animals a diet with high cholesterol content.
Methods: Rats were maintained on a diet containing 1.5% cholesterol and 0.5% cholic acid for 2 weeks prior to initiation of treatment. Serum cholesterol values were assessed and the animals randomized into groups for treatment.

ZDF rats = settings: rat, in vivo, 28 days
Protocol: Compound 18 was administered at doses up to 5 mg/kg/d. Compound cis-13-1 was administered at doses up to 50 mg/kg/d. We reasoned that the ZDF rat, as a metabolically challenged animal model, would be more sensitive to the potential adverse cardiac effects of thyromimetics than a normal, cholesterol-fed rat. At sacrifice, heart rate, and the first derivative of left ventricular pressure (LV dP/dt) were measured with a Millar catheter inserted into the left ventricle.

Sprague Dawley (SD) rat = assay: Cardiovascular activity in the Sprague Dawley rat, 7 days oral; format: in vivo; settings: SD rats, Compound 18 1 mg/kg, Compound cis-13-1 1-50 mg/kg/day
Source text: Method: […] The control group (n=6) was given vehicle only. […] On the 7th day after the start of dosing, animals were anesthetized with Isofluorane and the left ventricle cannulated with a high fidelity catheter tip transducer via the right carotid artery. Left ventricular pressure, its first derivative (LVdP/dt), lead I ECG, and heart rate (HR) triggered off the ECG waveform, were digitally recorded. LV dP/dt is a well accepted measure of ionotropic state. Systolic and diastolic aortic pressures were measured by retracting the catheter into the proximal aorta.

SMILES: CCOP(=O)(O)COc1cc(C)c(Cc2ccc(O)c(C(C)C)c2)c(C)c1 [Compound 69-1, [3,5-dimethyl-4-(4′-hydroxy-3′-iso-propylbenzyl)phenoxy]methylphosphonic acid monoethyl ester]
- total cholesterol at day 7 [1]: cholesterol lowering effects
- total cholesterol at day 14 [1]: cholesterol lowering effects
- cardiovascular parameters (heart rate, LV dP/dt, blood pressure) [1]: no changes in any of the cardiovascular parameters

SMILES: Cc1cc(C(=O)CP(=O)(O)O)cc(C)c1Cc1ccc(F)c(C(C)C)c1 [Compound 41-2]
- Ki [2]: > 2000 nM
- Ki [3]: > 2000 nM

SMILES: CC(C)c1cc(Cc2c(Cl)cc(OCP(=O)(O)O)cc2Cl)ccc1O [Compound 7-5, [3,5-dichloro-4-(4′-hydroxy-3′-iso-propylbenzyl)phenoxy] methylphosphonic acid]
- change in vivo at 0.2 mg/kg/day ([4]; ip, delivered i.p (0.2 mg/kg/d)): -63.3%
- change in vivo at 0.2 mg/kg/day ([4]; po, delivered p.o. (0.2 mg/kg/d)): -38%

SMILES: Cc1cc(OCC(=O)O)cc(C)c1Cc1ccc(O)c(C(C)C)c1 [Compound 17, [3,5-dimethyl-4-(4′-hydroxy-3′-iso-propylbenzyl)-phenoxy]acetic acid, reference compound]
- total cholesterol at day 7 [1]: significant decrease in cholesterol
- total cholesterol at day 14 [1]: no significant decrease in cholesterol was observed
- cardiac hypertrophy (cholesterol-fed rat): Undesirable cardiac hypertrophy was observed

SMILES: Cc1cc(CCP(=O)(O)O)cc(C)c1Oc1ccc(F)c(C(C)C)c1 [Compound 42-2]
- Ki [2]: > 2000 nM
- Ki [3]: > 2000 nM

SMILES: CCOC(=O)[C@H](C)NP(=O)(Cc1cc(Br)c(Oc2ccc(O)c(C(C)C)c2)c(Br)c1)N[C@@H](C)C(=O)OCC [Compound 15-5, di-N-(L-1-ethoxycarbonylethylamino)[3,5-dibromo-4-(4′-hydroxy-3′-iso-propylphenoxy)benzyl]phosphonamide]
- cholesterol lowering [4]: significant lowering of cholesterol

SMILES: CC(C)c1cc(Cc2c(Cl)cc(OC[P@@]3(=O)OCC[C@@H](c4cccc(Cl)c4)O3)cc2Cl)ccc1O [Compound 13-11, Cis (S)-2-[(3,5-dichloro-4-(4′-hydroxy-3′-iso-propylbenzyl)phenoxy)methyl]-4-(3-chlorophenyl)-2-oxo-2λ^5-[1,3,2]-dioxaphosphonane]
- change in vivo at 0.5 mg/kg/day ([4]; po): -24.8%

SMILES: Cc1cc(OC[P@@]2(=O)OCC[C@@H](c3cccc(Cl)c3)O2)cc(C)c1Cc1ccc(O)c(C(C)C)c1 [Compound 13-1-cis, Cis (S)-2-[(3,5-Dimethyl-4-(4′-hydroxy-3′-iso-propylbenzyl)phenoxy)methyl]-4-(3-Chlorophenyl)-2-oxo-2λ^5-[1,3,2]-dioxaphosphinane]
- TI Improvement, ED15 HR (ZDF rats; ZDF): >39
- TI Improvement, ED25 LV dP/dt (ZDF rats; ZDF): >102
- calculated TI in a non-metabolically challenged animal with respect to LV dP/dt (ZDF rats): > 10,000
- calculated TI in a non-metabolically challenged animal with respect to heart rate (ZDF rats): > 3900
- cholesterol lowering [4]: significant lowering of cholesterol
- HR, LV dP/dt and aortic pressure compared to vehicle (Sprague Dawley (SD) rat): not significantly different compared to vehicle treated animals
- heart weight and heart weight normalized to body weight (Sprague Dawley (SD) rat): no significant changes

SMILES: CC(C)c1cc(Oc2c(I)cc(OCP(=O)(OCOC(=O)C(C)(C)C)OCOC(=O)C(C)(C)C)cc2I)ccc1O [Compound 12-7, Di(pivaloyloxymethyl)[3,5-diiodo-4-(4′-hydroxy-3′-iso-propylphenoxy)phenoxy]methylphosphonate]
- change in vivo at 0.5 mg/kg/day ([4]; po): -39.1%

SMILES: CC(C)c1cc(Oc2c(Br)cc(CP(=O)(OCOC(=O)C(C)(C)C)OCOC(=O)C(C)(C)C)cc2Br)ccc1O [Compound 12-5, Di-(pivaloyloxymethyl)[3,5-dibromo-4-(4′-hydroxy-3′-iso-propylphenoxy)benzyl] phosphonate]
- cholesterol lowering [4]: significant lowering of cholesterol

SMILES: CCOC(=O)[C@H](C)NP(=O)(COc1cc(Cl)c(Cc2ccc(O)c(C(C)C)c2)c(Cl)c1)N[C@@H](C)C(=O)OCC [Compound 15-7]
- change in vivo at 0.5 mg/kg/day ([4]; po): -29.1%

SMILES: Cc1cc(OCP(C)(=O)O)cc(C)c1Cc1ccc(O)c(C(C)C)c1 [Compound 70, [3,5-dimethyl-4-(4′-hydroxy-3′-iso-propylbenzyl)-phenoxymethyl]methylphosphinic acid]
- total cholesterol at day 7 [1]: cholesterol lowering effects
- total cholesterol at day 14 [1]: cholesterol lowering effects
- cardiovascular parameters (heart rate, LV dP/dt, blood pressure) [1]: no changes in any of the cardiovascular parameters

SMILES: COP(=O)(O)COc1cc(C)c(Cc2ccc(O)c(C(C)C)c2)c(C)c1 [Compound 69, [3,5-dimethyl-4-(4′-hydroxy-3′-iso-propylbenzyl)phenoxy]-methylphosphonic acid monomethyl ester]
- total cholesterol at day 7 [1]: cholesterol lowering effects
- total cholesterol at day 14 [1]: cholesterol lowering effects
- cardiovascular parameters (heart rate, LV dP/dt, blood pressure) [1]: no changes in any of the cardiovascular parameters
